“Also recorded” adds a separate entry of the source.
Key:
Assay type in all cases: biochemical
ACD11 [1] = target: T1, ACD11 (Arabidopsis thaliana, UniProt O64587); assay: Bicelle-dilution FRET assay, competitive inhibition of BODIPY-C1P transfer; details: increasing concentrations in donor bd-vesicles; donor q=0.5, acceptor q=0.5
T1 construct: 6xHis-SUMO (N, cleaved yes); made in house; host or cells: E. coli BL21 (DE3)-pLysS or -Star
T1 sequence (O64587 1-206): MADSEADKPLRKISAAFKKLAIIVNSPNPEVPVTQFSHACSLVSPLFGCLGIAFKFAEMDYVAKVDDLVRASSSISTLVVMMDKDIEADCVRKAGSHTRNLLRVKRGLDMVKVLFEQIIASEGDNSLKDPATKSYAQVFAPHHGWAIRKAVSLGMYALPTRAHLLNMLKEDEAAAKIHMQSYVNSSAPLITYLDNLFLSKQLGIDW
From the text: The C1P derivative, diethyl-C1P, can inhibit cytosolic phospholipase A2α (cPLA2α) activity when the C1P acyl chain is short—e.g., C2-diethyl-C1P. The inhibition of cPLA2α by C2-diethyl-C1P presumably occurs via interaction with the cPLA2α C2-domain, which contains a C1P binding site that activates cPLA2α by enhancing translocation to membranes. To date, no inhibitors of C1P transfer proteins (e.g., CPTP and ACD11) have been reported. The bicelle-dilution FRET assay was used to test whether C2-diethyl-C1P can inhibit the plant CPTP ortholog, ACD11. […]
(§1) Real-time intermembrane transfer rates of fluorescent sphingolipids were obtained by Förster resonance energy transfer (FRET) using a SPEX FluoroLog3 spectrofluorometer (Horiba Scientific, Ltd., Kyoto, Japan), with excitation and emission band passes of 2 nm and a stirred (˜100 rpm), temperature-controlled (25±0.1° C.) sample cuvette holder. […] Either sonicated POPC vesicles or b-d POPC/DHPC model membranes served as receiver (acceptor) model membranes, which produced minimal change in fluorescence signal when added in excess (Mattjus et al., 1999, Anal. Biochem. 268:297-304). […]

ACD11 [2] = target: T1, ACD11; assay: Bicelle-dilution FRET lipid transfer assay, lipid specificity; details: donor q=0.5, acceptor q=0.5
Experimental: (§2) For experiments requiring ˜10 kinetic assays, donor stock lipid mixtures (0.5 q-value) were prepared by combining POPC (0.39 μmol), BODIPY-15-SL (0.004 μmol), DiI-C18 (0.006 μmol) and DHPC (0.8 μmol) from stock solvent solutions of hexane/ethanol (9:1) or chloroform/methanol (8:2). Acceptor stock lipid mixtures (0.5 q-value) were prepared by combining POPC (2 μmol) and DHPC (4 μmol) from stock solvent solutions. Total solvent volume in the clean glass vials containing inverted conical bottoms was approximately 100 μl. For other q-value stocks, the amount of DHPC was adjusted accordingly. Dry films of the lipid mixtures were obtained using a stream of nitrogen to evaporate all solvent at room temperature. The dry lipid films were hydrated by adding 200 μl of assay buffer (10 mM potassium phosphate, pH 6.6, 150 mM NaCl, and 0.2% EDTA) and then vortexed vigorously for at least five minutes to achieve optical clarity. For stocks with q-values of 1 or 2, lipid mixtures were not only vortexed vigorously but also sonicated briefly (2 to 3 minutes). All stocks were equilibrated overnight at room temperature prior to use in the lipid transfer assay regardless of q-value [q-value for donors=(POPC+BODIPY-15-SL+DiIC18)/DHPC; q-value for acceptors=POPC/DHPC]. Immediately prior to use in the FRET lipid transfer assay, donor and acceptor stocks were centrifuged for 10 minutes at 13,000 rpm. The FRET lipid transfer assay as performed as follows: donor stock (20 μl) was diluted into a stirred temperature-controlled cuvette containing assay buffer an equilibrated for two minutes to ensure a stable signal response. Next, acceptor stock (20 μl was diluted into the stirred cuvette and equilibrated for four minutes prior to initiating sphingolipid transfer by adding lipid transfer protein (2 μg) to a final cuvette volume of 2.5 ml. The total lipid concentration was 288 μM for assays using a 5:1 acceptor-to-donor ratio and was higher when more acceptors were added to increase transfer equilibrium from the donors.
(§3) Real-time intermembrane transfer rates of fluorescent sphingolipids were obtained by Förster resonance energy transfer (FRET) using a SPEX FluoroLog3 spectrofluorometer (Horiba Scientific, Ltd., Kyoto, Japan), with excitation and emission band passes of 2 nm and a stirred (˜100 rpm), temperature-controlled (25±0.1° C.) sample cuvette holder. All fluorescent lipids were localized initially to the SL-source (donor) vesicles (formed by rapid ethanol injection or probe sonication) or SL-source (donor) b-d model membranes. Minimal BODIPY-lipid emission occurred upon excitation (460 nm) due to resonance energy transfer to nearby C18-DiI. Either sonicated POPC vesicles or b-d POPC/DHPC model membranes served as receiver (acceptor) model membranes, which produced minimal change in fluorescence signal when added in excess (Mattjus et al., 1999, Anal. Biochem. 268:297-304). The final receiver (acceptor) vesicle concentration in the FRET lipid transfer assay was ˜240 μM to 1440 μM, which was five-fold to 30-fold higher than the SL-source (donor) vesicle concentration. Protein addition triggered a sudden, hyperbolic increase in BODIPY emission intensity (503 nm) as FRET decreased due to protein transport of fluorescent glycolipids from SL-source (donor) vesicles to receiver (acceptor) vesicles, creating separation from nontransferable C18-DiI lipid, as the protein delivers the BODIPY-SL to the excess POPC receiver vesicles or POPC/DHPC bicelles. Addition of Tween-20 detergent after extended incubation provided a measure of maximum intensity achievable by “infinite” fluorophore separation.

GLTP [3] = target: T2, GLTP (Homo sapiens, UniProt Q9NZD2); assay: as above; details: for transfer by GLTP between bd donors and acceptors: donor q=0.5, acceptor q=0.5
T2 construct: 6xHis-SUMO (N, cleaved yes); made in house; host or cells: E. coli BL21 (DE3)-pLysS or -Star
T2 sequence (Q9NZD2 1-209): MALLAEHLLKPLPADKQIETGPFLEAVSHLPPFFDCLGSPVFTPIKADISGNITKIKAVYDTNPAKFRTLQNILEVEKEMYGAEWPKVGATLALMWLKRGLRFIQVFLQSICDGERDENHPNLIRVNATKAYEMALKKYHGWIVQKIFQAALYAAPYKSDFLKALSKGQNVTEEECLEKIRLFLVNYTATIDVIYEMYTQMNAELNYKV
Experimental: as §2, §3

GFP-CPTP = assay: Bicelle-dilution FRET lipid transfer assay with HeLa cell lysate; details: lysate of transfected HeLa cells, 10 μl aliquots; donor q=0.5, acceptor q=0.5
Sequence of GFP-CPTP (Q5TA50 whole entry): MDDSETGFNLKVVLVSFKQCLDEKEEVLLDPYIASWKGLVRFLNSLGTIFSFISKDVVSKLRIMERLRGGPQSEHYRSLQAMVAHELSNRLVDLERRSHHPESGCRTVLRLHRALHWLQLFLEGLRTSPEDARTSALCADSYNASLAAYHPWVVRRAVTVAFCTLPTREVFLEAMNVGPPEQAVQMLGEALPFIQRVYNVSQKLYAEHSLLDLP
Experimental: (§4) FIG. 14. Bicelle-dilution-model-membrane-assay detection of transfer activity by GLTP and CPTP expressed in HeLa cells after transient transfection with GFP-GLTP or GFP-CPTP. Cells were disrupted by brief probe sonication (30 sec×2) on ice. Cell supernatants were recovered by benchtop centrifugation (5 min @ 12,000 rpm) at 4° C. and then 10 μl aliquots were assayed for LTP activity. (Donor: q=0.5; Acceptor: q=0.5).
(§5) HeLa cells were plated on 100-mm dishes and transfected with different vectors using Lipofectamine 2000 (Invitrogen, Carlsbad, Calif.). At 24 hours post-transfection, cells were harvested by trypsinization, washed with phosphate-buffered saline (PBS) by benchtop centrifugation and then suspended in PBS buffer (200 μl). Disruption of the HeLa cells was accomplished by brief probe sonication (2×30 seconds) on ice. Cell supernatants were recovered by benchtop centrifugation (5 minutes at 12,000 rpm) at 4° C. and 10 μl aliquots were assayed for SLTP activity using donor bicelle-dilution vesicles containing either Me4-BODIPY-GalCer or Me4-BODIPY-C1P along with C18-DiI.

GFP-GLTP = assay: as above; details: lysate of transfected HeLa cells, 10 μl aliquots; donor q=0.5, acceptor q=0.5
Experimental: as §4, §5

GLTP [4] = target: T2, GLTP; assay: FRET lipid transfer control with DHPC in assay buffer, ethanol-injection donors and sonicated acceptors; details: DHPC 352 μM and 672 μM in assay buffer; ethanol-injection donors, sonicated acceptors (5×)
Experimental: Small phosphatidylcholine vesicles (25-40 nm diameters) have typically been used as model membranes to assess lipid inter-bilayer transfer because of the faster transfer rates compared to those obtained using larger vesicles. Different donor and acceptor combinations were tested involving either small vesicles and/or 0.5 q-value bicelle dilution vesicles (bd-vesicles) to determine which combination produced the fastest intermembrane transfer rates. […] When the donor vesicles were produced by sonication, sphingolipid transfer rates were markedly slowed regardless of whether the acceptors were bd-vesicles or sonicated vesicles. […] Thus, similar high assay sensitivity can be achieved using the bicelle-to-bicelle transfer conditions as for vesicle-to-vesicle transfer conditions. […]
as §1

Molecule | transfer by ACD11 between bd donors and acceptors (ACD11 [2]) | transfer by GLTP between bd donors and acceptors (GLTP [3]) | bd-vesicle-to-bd-vesicle transfer by GFP-GLTP (GFP-GLTP) | also measured
ceramide-1-phosphate [C1P] |  |  |  | competition effect on ACD11-mediated transfer rates of Me4-BODIPY C1P (ACD11 [1]): Slowing of ACD11 transfer of BODIPY-C1P; also recorded: slow the inter-bicelles transfer rates
Me4-BODIPY-15-ceramide-1-phosphate [Me4-BODIPY C1P] | specifically transfers | not | not | transfer by ACD11 between bd donors and acceptors (ACD11 [2]; listed as BODIPY-C1P): transfer; bd-vesicle-to-bd-vesicle transfer by GFP-CPTP (GFP-CPTP): transfer
CCCCCC(=O)OC[C@H](COP(=O)([O-])OCC[N+](C)(C)C)OC(=O)CCCCC [DHPC, 1,2-hexanoyl-sn-glycero-3-phosphocholine] |  |  |  | effect on GLTP transfer rate of Me4-BODIPY-GalCer (GLTP [4]): Lack of significant effect; also recorded: Minimal affect
Me4-BODIPY-15-galactosylceramide [Me4-BODIPY GalCer] | not | is detected | transfer | transfer equilibrium by GLTP (GLTP [3]; bicelle-dilution vesicles, 100% estimated by Tween-20 solubilization): ~70%; transfer by GLTP between bd donors and acceptors (GLTP [3]; listed as BODIPY-GalCer): transfer

From US11740235B2, “Model-membrane-based lipid transfer assays and methods” (Regents of the University of Minnesota, priority 2019, dated 2023)
